Reference: patent publication US11419852B2, “Beta-lactam compounds or salts thereof for use in long-acting prevention or treatment of a glucose metabolism disorder” (GLYCOLYSIS BIOMED CO., LTD., priority 2019, dated 2022)
Marks after values point to notes of the source that are not given here.

Test: Body weight of mice recorded weekly
Assay type: in vivo
Conditions: dosing 6 weeks
Experimental: Four to five weeks old db/db mice (BKS.Cg-Dock7^m+/+Lepr^db/JNarl) and m/m mice (BKS.Cg-Dock7^m+/Dock7^m+) were obtained from National Laboratory Animal Center ([…], Taiwan). […] PMI Nutrition International, Brentwood, Mo.) and water ad libitum. […] The mouse body weight (bw) and the amounts of water and food intake were recorded weekly for the entire study period.

**Q.** For C[C@@H](O)[C@H]1C(=O)N2C(C(=O)O)=C(S[C@@H]3CN[C@H](C(=O)Nc4cccc(C(=O)O)c4)C3)[C@H](C)[C@H]12 [DMH, ertapenem], which Body weight (Ex 2 G3 db/db, 0.3 mg/g bw/day (row printed 0.3 DMH), week 18) is on record?
**A.** Its Body weight is 49.57 ± 1.47^b.

**Q.** And the Body weight (Ex 2 G3 db/db, 0.3 mg/g bw/day (row printed 0.3 DMH), week 19)?
**A.** Its Body weight is 51.98 ± 1.66^b.

**Q.** And the Body weight (Ex 2 G4 db/db, DMH i.p. 0.1 mg/g bw/day, Baseline)?
**A.** The Body weight was 29.44 ± 2.09^b.

**Q.** What about the Body weight (Ex 2 G4 db/db, DMH i.p. 0.1 mg/g bw/day, week 1) of the same molecule?
**A.** Its Body weight is 29.21 ± 2.01^b.

**Q.** And the Body weight (Ex 2 G4 db/db, DMH i.p. 0.1 mg/g bw/day, week 2)?
**A.** The Body weight was 29.95 ± 1.79^b.

**Q.** And the Body weight (Ex 2 G4 db/db, DMH i.p. 0.1 mg/g bw/day, week 3)?
**A.** The Body weight was 32.38 ± 1.38^b.

**Q.** What about the Body weight (Ex 2 G4 db/db, DMH i.p. 0.1 mg/g bw/day, week 4) of the same molecule?
**A.** The Body weight was 33.49 ± 1.13^b.

**Q.** And the Body weight (Ex 2 G4 db/db, DMH i.p. 0.1 mg/g bw/day, week 5)?
**A.** The Body weight was 35.72 ± 1.01^b.

**Q.** What about the Body weight (Ex 2 G4 db/db, DMH i.p. 0.1 mg/g bw/day, week 6) of the same molecule?
**A.** Its Body weight is 36.73 ± 0.95^b.

**Q.** What about the Body weight (Ex 2 G4 db/db, DMH i.p. 0.1 mg/g bw/day, week 7) of the same molecule?
**A.** The Body weight was 36.68 ± 0.83^b.

**Q.** And the Body weight (Ex 2 G4 db/db, DMH i.p. 0.1 mg/g bw/day, week 8)?
**A.** The Body weight was 37.83 ± 0.77^b.

**Q.** And the Body weight (Ex 2 G4 db/db, DMH i.p. 0.1 mg/g bw/day, week 9)?
**A.** The Body weight was 38.46 ± 0.8^b.

**Q.** And the Body weight (Ex 2 G4 db/db, DMH i.p. 0.1 mg/g bw/day, week 10)?
**A.** Its Body weight is 39.43 ± 0.81^b.

**Q.** What about the Body weight (Ex 2 G4 db/db, DMH i.p. 0.1 mg/g bw/day, week 11) of the same molecule?
**A.** The Body weight was 40.86 ± 0.82^b.

**Q.** What about the Body weight (Ex 2 G4 db/db, DMH i.p. 0.1 mg/g bw/day, week 12) of the same molecule?
**A.** The Body weight was 42.59 ± 0.87^b.

**Q.** And the Body weight (Ex 2 G4 db/db, DMH i.p. 0.1 mg/g bw/day, week 13)?
**A.** Its Body weight is 44.21 ± 0.99^b.

**Q.** What about the Body weight (Ex 2 G4 db/db, DMH i.p. 0.1 mg/g bw/day, week 14) of the same molecule?
**A.** Its Body weight is 43.56 ± 1.08^b.

**Q.** What about the Body weight (Ex 2 G4 db/db, DMH i.p. 0.1 mg/g bw/day, week 15) of the same molecule?
**A.** The Body weight was 45.90 ± 1.18^b.

**Q.** And the Body weight (Ex 2 G4 db/db, DMH i.p. 0.1 mg/g bw/day, week 16)?
**A.** The Body weight was 46.80 ± 1.29^b.

**Q.** What about the Body weight (Ex 2 G4 db/db, DMH i.p. 0.1 mg/g bw/day, week 17) of the same molecule?
**A.** The Body weight was 47.21 ± 1.26^b.

**Q.** And the Body weight (Ex 2 G4 db/db, DMH i.p. 0.1 mg/g bw/day, week 18)?
**A.** Its Body weight is 48.14 ± 1.23^b.

**Q.** What about the Body weight (Ex 2 G4 db/db, DMH i.p. 0.1 mg/g bw/day, week 19) of the same molecule?
**A.** The Body weight was 50.91 ± 1.22^b.

**Q.** What about the Body weight (Ex 2 G5 db/db, DMH i.p. 0.2 mg/g bw/day, Baseline) of the same molecule?
**A.** The Body weight was 31.70 ± 1.46^b.

**Q.** What about the Body weight (Ex 2 G5 db/db, DMH i.p. 0.2 mg/g bw/day, week 1) of the same molecule?
**A.** The Body weight was 31.31 ± 1.48^b.

**Q.** What about the Body weight (Ex 2 G5 db/db, DMH i.p. 0.2 mg/g bw/day, week 2) of the same molecule?
**A.** The Body weight was 31.81 ± 1.12^bc.

**Q.** And the Body weight (Ex 2 G5 db/db, DMH i.p. 0.2 mg/g bw/day, week 3)?
**A.** Its Body weight is 34.36 ± 0.75^bc.

**Q.** What about the Body weight (Ex 2 G5 db/db, DMH i.p. 0.2 mg/g bw/day, week 4) of the same molecule?
**A.** The Body weight was 35.55 ± 0.61^bc.

**Q.** And the Body weight (Ex 2 G5 db/db, DMH i.p. 0.2 mg/g bw/day, week 5)?
**A.** The Body weight was 37.76 ± 0.49^bc.

**Q.** What about the Body weight (Ex 2 G5 db/db, DMH i.p. 0.2 mg/g bw/day, week 6) of the same molecule?
**A.** The Body weight was 39.06 ± 0.54^bc.

**Q.** What about the Body weight (Ex 2 G5 db/db, DMH i.p. 0.2 mg/g bw/day, week 7) of the same molecule?
**A.** Its Body weight is 39.07 ± 0.45^bc.

**Q.** And the Body weight (Ex 2 G5 db/db, DMH i.p. 0.2 mg/g bw/day, week 8)?
**A.** Its Body weight is 39.99 ± 0.39^bc.

**Q.** What about the Body weight (Ex 2 G5 db/db, DMH i.p. 0.2 mg/g bw/day, week 9) of the same molecule?
**A.** Its Body weight is 40.63 ± 0.27^bcd.

**Q.** And the Body weight (Ex 2 G5 db/db, DMH i.p. 0.2 mg/g bw/day, week 10)?
**A.** The Body weight was 41.39 ± 0.29^b.

**Q.** What about the Body weight (Ex 2 G5 db/db, DMH i.p. 0.2 mg/g bw/day, week 11) of the same molecule?
**A.** The Body weight was 42.98 ± 0.35^b.

**Q.** And the Body weight (Ex 2 G5 db/db, DMH i.p. 0.2 mg/g bw/day, week 12)?
**A.** The Body weight was 44.66 ± 0.38^b.

**Q.** And the Body weight (Ex 2 G5 db/db, DMH i.p. 0.2 mg/g bw/day, week 13)?
**A.** The Body weight was 46.52 ± 0.45^b.

**Q.** What about the Body weight (Ex 2 G5 db/db, DMH i.p. 0.2 mg/g bw/day, week 14) of the same molecule?
**A.** Its Body weight is 46.10 ± 0.51^b.

**Q.** What about the Body weight (Ex 2 G5 db/db, DMH i.p. 0.2 mg/g bw/day, week 15) of the same molecule?
**A.** Its Body weight is 48.58 ± 0.55^b.

**Q.** What about the Body weight (Ex 2 G5 db/db, DMH i.p. 0.2 mg/g bw/day, week 16) of the same molecule?
**A.** Its Body weight is 49.65 ± 0.63^b.

**Q.** What about the Body weight (Ex 2 G5 db/db, DMH i.p. 0.2 mg/g bw/day, week 17) of the same molecule?
**A.** Its Body weight is 49.96 ± 0.68^b.

**Q.** And the Body weight (Ex 2 G5 db/db, DMH i.p. 0.2 mg/g bw/day, week 18)?
**A.** The Body weight was 50.71 ± 0.87^b.

**Q.** What about the Body weight (Ex 2 G5 db/db, DMH i.p. 0.2 mg/g bw/day, week 19) of the same molecule?
**A.** The Body weight was 52.73 ± 1.04^b.

**Q.** And the Body weight (Ex 2 G6 db/db, DMH i.p. 0.4 mg/g bw/day, Baseline)?
**A.** Its Body weight is 31.61 ± 1.03^b.

**Q.** And the Body weight (Ex 2 G6 db/db, DMH i.p. 0.4 mg/g bw/day, week 1)?
**A.** Its Body weight is 31.23 ± 0.98^b.

**Q.** And the Body weight (Ex 2 G6 db/db, DMH i.p. 0.4 mg/g bw/day, week 2)?
**A.** The Body weight was 31.62 ± 0.77^bc.

**Q.** And the Body weight (Ex 2 G6 db/db, DMH i.p. 0.4 mg/g bw/day, week 3)?
**A.** Its Body weight is 33.98 ± 0.54^b.

**Q.** What about the Body weight (Ex 2 G6 db/db, DMH i.p. 0.4 mg/g bw/day, week 4) of the same molecule?
**A.** Its Body weight is 34.29 ± 0.59^b.

**Q.** And the Body weight (Ex 2 G6 db/db, DMH i.p. 0.4 mg/g bw/day, week 5)?
**A.** The Body weight was 36.44 ± 0.71^b.

**Q.** And the Body weight (Ex 2 G6 db/db, DMH i.p. 0.4 mg/g bw/day, week 6)?
**A.** The Body weight was 37.16 ± 0.8^b.
